Data from patent US20060204957A1, “Mta1s, a steriod hormone receptor corepressor” (priority 2002, published 2006).
Values belong to the compound of their own block, whether it stands above or below them.

Columns and labels:
[1] = tested on: PRE-mediated transcription; assay: PRE-mediated transcription in ZR-75R cells; type: cell-based, human; details: MTA1s-overexpressing ZR-75R cells
Experimental: Transfection was performed using a Fugene-6 kit (Roche Biochemical, New Jersey) as per the manufacturer's instructions. Cells were transiently cotransfected with a reporter construct and (β-galactosidase, and assayed for luciferase activity as described.

[2] = tested on: ER; assay: Confocal localization of ER in ZR-75R clones after estradiol; type: cell-based, human
Experimental: FIGS. 3A-3H. MTA1s typically localizes in the cytoplasm and interacts with ER. FIG. 3A illustrates an example of confocal microscopy of MCF-7 cells transiently transfected with T7-tagged MTA1 or MTA1s constructs. FIG. 3B illustrates exemplary expression of T7-MTA1s in ZR75 clones. FIG. 3C illustrates exemplary nuclear and cytoplasmic fractions that were assessed by immunoblotting with the indicated antibodies. […] FIG. 3F illustrates exemplary GST pull-down assays. […] FIG. 3H illustrates an example of expression of MTA1s and ERα in indicated cells by confocal microscopy.
The cellular localization of T7-MTA1s, and ER was determined using indirect immunofluorescence as described in Mazumdar et al., 2001, herein incorporated by reference. Cells were treated with or without anti-T7 mAb or ER Ab followed by 546-Alexa-labeled goat anti-mouse Ab or 488-Alexa.

[3] = tested on: ZR-75R cells; assay: Growth of ZR-75R cells in monolayer culture; type: cell-based, human
Description: FIGS. 11A-11E. MTA1s may stimulate aggressive phenotypes in breast cancer cells. FIG. 11A illustrates an example of MTA1s overexpression inhibiting PRE-driven but not RARE-driven transcription. FIG. […] illustrates the Growth-rate of ZR/pcDNA or ZR/MTA1s cells in monolayer culture in the presence of E2 alone or with ICI 182780 (10^−9 M for 4 days). FIG. 11C show an exemplary effect of MTA1s expression on anchorage independent growth of ZR/pcDNA and ZR/MTA1s cells grown in 10% serum in the presence or absence of ICI 182780 (10^−9 M) or 4HT (10^−8 M) for 14 days. […] FIG. 11E illustrates that MTA1s may induce tumorigenesis of breast cancer cells. 5×10^6 cells were subcutaneously inoculated in the athymic nude mice (n=10), and tumor volumes at day 21 were recorded.

[4] = target: T1, ERα (Homo sapiens, UniProt P03372); details: yeast AH109 two-hybrid
T1 sequence (P03372 1-536): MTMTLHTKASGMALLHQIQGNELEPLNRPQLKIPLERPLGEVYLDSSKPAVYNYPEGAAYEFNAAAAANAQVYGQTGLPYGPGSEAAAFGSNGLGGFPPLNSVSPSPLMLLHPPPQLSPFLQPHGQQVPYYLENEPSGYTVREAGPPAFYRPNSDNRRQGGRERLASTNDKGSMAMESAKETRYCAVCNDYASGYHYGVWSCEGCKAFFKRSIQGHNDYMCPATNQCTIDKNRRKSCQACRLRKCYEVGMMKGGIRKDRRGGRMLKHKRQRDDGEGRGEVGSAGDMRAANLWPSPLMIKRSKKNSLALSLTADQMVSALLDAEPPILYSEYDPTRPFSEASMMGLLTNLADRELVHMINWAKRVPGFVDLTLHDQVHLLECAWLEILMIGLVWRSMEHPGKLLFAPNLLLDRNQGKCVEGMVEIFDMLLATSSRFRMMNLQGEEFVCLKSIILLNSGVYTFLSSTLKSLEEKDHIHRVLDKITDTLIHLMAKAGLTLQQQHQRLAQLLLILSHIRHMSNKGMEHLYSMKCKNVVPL
T1 sequence (Q13330 1-429 isoform Q13330-2 partner limits assumed): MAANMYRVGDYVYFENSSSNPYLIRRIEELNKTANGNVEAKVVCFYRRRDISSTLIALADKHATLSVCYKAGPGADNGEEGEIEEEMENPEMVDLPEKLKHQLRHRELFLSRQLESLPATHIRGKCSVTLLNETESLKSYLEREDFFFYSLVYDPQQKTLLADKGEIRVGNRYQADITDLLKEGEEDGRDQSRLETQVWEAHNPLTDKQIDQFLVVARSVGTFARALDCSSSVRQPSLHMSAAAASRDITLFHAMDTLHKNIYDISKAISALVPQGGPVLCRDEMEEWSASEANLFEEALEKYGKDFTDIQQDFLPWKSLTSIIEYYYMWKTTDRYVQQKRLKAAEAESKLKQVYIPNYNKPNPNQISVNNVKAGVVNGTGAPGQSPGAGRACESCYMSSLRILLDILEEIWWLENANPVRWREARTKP

SMILES: CC(=O)[C@H]1CC[C@H]2[C@@H]3CCC4=CC(=O)CC[C@]4(C)[C@H]3CC[C@]12C [progesterone]
stimulation of PRE-mediated transcription [1]: failed to stimulate

SMILES: C[C@]12CC[C@@H]3c4ccc(O)cc4CC[C@H]3[C@@H]1CC[C@@H]2O [estradiol, 17β-estradiol]
redistribution of ER to the nucleus ([2]; ZR-75R/vector cells): rapidly redistributed the ER to the nucleus
cells in which ER was not redistributed to the nucleus ([2]; estradiol-activated ZR-75R/MTA1s cells): over 90%
cell growth response ([3]; ZR-75R cells expressing MTA1s): did not respond
cell growth ([3]; ZR-75R cells expressing control vector): stimulated

effect on interaction between ERα and MTA1s [4]: failed to block
SMILES: C[C@]12CC[C@@H]3c4ccc(O)cc4C[C@@H](CCCCCCCCC[S+]([O-])CCCC(F)(F)C(F)(F)F)[C@H]3[C@@H]1CC[C@@H]2O (stereo partly drawn) [ICI 182780]
